Measured values from patent US10954252B1, “Inhibitors of human immunodeficiency virus replication” (ViiV HEALTHCARE UK (NO.5) LIMITED, priority 2017, dated 2021).
pEC50: −log10 of the molar value.

Columns and labels:
[1] = Compound cytotoxicity, XTT-based colorimetric assay; format: cell-based; settings: human, uninfected MT2 cells
In short: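 CC50 from uninfected MT2 cells run under the antiviral-assay protocol without virus. Viability read on day 4 by XTT colorimetric assay.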

[2] = system: recombinant NL4-3 virus (nef section replaced with Renilla luciferase gene) in MT-2 cells; test: HIV cell culture assay (antiviral activity, luciferase readout); format: cell-based; settings: MT-2 cells infected for 4-5 days with recombinant NL4-3 luciferase virus
In short: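 NL4-3 reporter virus carrying Renilla luciferase in place of part of nef, produced in 293T cells, was used to infect MT-2 cells for 4-5 days with serial compound dilutions. Luciferase activity was read with a live-cell substrate; EC50 derived from the median effect equation.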

Compound	CC50 at 4 days ([1]; Table 1a, day 4, XTT) [µM]	pEC50 ([2]; Renilla, NL43, Table 1a)	CC50 at 4 days ([1]; Table 1, day 4, XTT) [µM]	further results
Cn1nc(NS(C)(=O)=O)c2c(Cl)ccc(-n3c([C@H](Cc4cc(F)cc(F)c4)NC(=O)Cn4ccc(C(F)(F)F)n4)nc4cc(C(F)(F)F)ccc4c3=O)c21 (single isomer, unassigned) [Example 141]	> 1			pEC50 ([2]; Table 1a): 6.66
COc1cc(F)c2c(=O)n(-c3ccc(Cl)c4c(NS(C)(=O)=O)nn(C)c34)c([C@H](Cc3cc(F)cc(F)c3)NC(=O)Cn3ccc(C4CC4)n3)nc2c1 (single isomer, unassigned) [Example 189]	> 1			pEC50 ([2]; Table 1a): 8.19
Cn1ccc2nc([C@@H](Cc3cc(F)cc(F)c3)NC(=O)Cn3nc(C(F)F)c4c3C(F)(F)[C@@H]3C[C@H]43)c(-c3ccc(Cl)c4c(NS(C)(=O)=O)nn(C)c34)cc21 (single isomer, unassigned) [Example 121]	> 10	6.77		
Cn1nc(NS(C)(=O)=O)c2c(Cl)ccc(-c3c(C(Cc4cc(F)cc(F)c4)NC(=O)Cn4nc(C(F)F)c5c4C(F)(F)[C@@H]4C[C@H]54)ncc4[nH]cnc34)c21 (single isomer, unassigned) [Example 7.3]			> 10	pEC50 ([2]; Table 1): 5.00
CS(=O)(=O)Nc1n[nH]c2c(-c3cc4[nH]ccc4nc3[C@H](Cc3cc(F)cc(F)c3)NC(=O)Cn3nc(C(F)F)c4c3C(F)(F)[C@@H]3C[C@H]43)ccc(Cl)c12 [Example 90, N—((S)-1-(6-(4-chloro-3-(methylsulfonamido)-1H-indazol-7-yl)-1H-pyrrolo[3,2-b]pyridin-5-yl)-2-(3,5-difluorophenyl)ethyl)-2-((3bS,4aR)-3-(difluoromethyl)-5,5-difluoro-3b,4,4a,5-tetrahydro-1H-cyclopropa[3,4]cyclopenta[1,2-c]pyrazol-1-yl)acetamide]	> 10	8.83		
COc1cc(F)c2c(=O)n(-c3ccc(Cl)c4c(NS(C)(=O)=O)nn(C)c34)c([C@H](Cc3cc(F)cc(F)c3)NC(=O)Cn3nc(C(F)F)c4c3C(F)(F)[C@@H]3C[C@H]43)nc2c1 (mixture of isomers) [Example 185, N—((S)-1-(3-(4-chloro-1-methyl-3-(methylsulfonamido)-1H-indazol-7-yl)-5-fluoro-7-methoxy-4-oxo-3,4-dihydroquinazolin-2-yl)-2-(3,5-difluorophenyl)ethyl)-2-((3bS,4aR)-3-(difluoromethyl)-5,5-difluoro-3b,4,4a,5-tetrahydro-1H-cyclopropa[3,4]cyclopenta[1,2-c]pyrazol-1-yl)acetamide]	> 1	7.06		
O=C(Cn1nc(C(F)F)c2c1C(F)(F)[C@@H]1C[C@H]21)NC(Cc1cc(F)cc(F)c1)c1nc2cn[nH]c2cc1-c1ccc(OC(F)F)cc1 (single isomer, unassigned) [Example 3.10]			6.8	pEC50 ([2]; Renilla, NL43, Table 1): 6.49
CCOc1ccc2c(=O)n(-c3ccc(Cl)c4c(NS(C)(=O)=O)nn(C)c34)c(C(Cc3cc(F)cc(F)c3)NC(=O)Cn3nc(C(F)F)c4c3C(F)(F)[C@@H]3C[C@H]43)nc2n1 (mixture of isomers) [Example 60.1]	> 1	9.40		
O=C(Cn1nc(C(F)F)c2c1C(F)(F)[C@@H]1C[C@H]21)N[C@@H](Cc1cc(F)cc(F)c1)c1nc2ccccc2c(=O)n1-c1ccc(Cl)cc1 [Example 124, N—((S)-1-(3-(4-chlorophenyl)-4-oxo-3,4-dihydroquinazolin-2-yl)-2-(3,5-difluorophenyl)ethyl)-2-((3bS,4aR)-3-(difluoromethyl)-5,5-difluoro-3b,4,4a,5-tetrahydro-1H-cyclopropa[3,4]cyclopenta[1,2-c]pyrazol-1-yl)acetamide]	> 1	6.68		
N#Cc1cc(-c2cc3[nH]ncc3nc2[C@H](Cc2cc(F)cc(F)c2)NC(=O)Cn2nc(C(F)F)c3c2C(F)(F)[C@@H]2C[C@H]32)ccc1Cl [Example 10.15, N—((S)-1-(6-(4-chloro-3-cyanophenyl)-1H-pyrazolo[4,3-b]pyridin-5-yl)-2-(3,5-difluorophenyl)ethyl)-2-((3bS,4aR)-3-(difluoromethyl)-5,5-difluoro-3b,4,4a,5-tetrahydro-1H-cyclopropa[3,4]cyclopenta[1,2-c]pyrazol-1-yl)acetamide]			5.5	pEC50 ([2]; Renilla, NL43, Table 1): 5.93
O=C(Cn1nc(C(F)F)c2c1C(F)(F)[C@@H]1C[C@H]21)N[C@@H](Cc1cc(F)cc(F)c1)c1nc2cn[nH]c2cc1-c1ccc(F)c(C(=O)O)c1 [Example 10.25, 5-(5-((S)-1-(2-((3bS,4aR)-3-(difluoromethyl)-5,5-difluoro-3b,4,4a,5-tetrahydro-1H-cyclopropa[3,4]cyclopenta[1,2-c]pyrazol-1-yl)acetamido)-2-(3,5-difluorophenyl)ethyl)-1H-pyrazolo[4,3-b]pyridin-6-yl)-2-fluorobenzoic acid]			> 10	pEC50 ([2]; Renilla, NL43, Table 1): 6.24
Cn1nc(NS(C)(=O)=O)c2c(Cl)ccc(-n3c([C@H](Cc4cc(F)cc(F)c4)NC(=O)Cc4c[nH]c5ccc(F)cc45)nc4ncccc4c3=O)c21 [Example 51, N-[(1S)-1-[3-(4-chloro-3-methanesulfonamido-1-methyl-1H-indazol-7-yl)-4-oxo-3H,4H-pyrido[2,3-d]pyrimidin-2-yl]-2-(3,5-difluorophenyl)ethyl]-2-(5-fluoro-1H-indol-3-yl)acetamide]	> 1	8.98		
Cn1nc(NS(C)(=O)=O)c2c(Cl)ccc(-c3cc4cc[nH]c4nc3C(Cc3cc(F)cc(F)c3)NC(=O)Cn3nc(C(F)F)c4c3C(F)(F)[C@@H]3C[C@H]43)c21 (single isomer, unassigned) [Example 83]	> 10			pEC50 ([2]; Table 1a): 8.99
Cn1nc(NS(C)(=O)=O)c2c(Cl)ccc(-n3c([C@H](Cc4cc(F)cc(F)c4)NC(=O)Cc4c[nH]c5ccc(O)cc45)nc4cc(CS(C)(=O)=O)ccc4c3=O)c21 [Example 203, (S)—N-(1-(3-(4-chloro-1-methyl-3-(methylsulfonamido)-1H-indazol-7-yl)-7-((methylsulfonyl)methyl)-4-oxo-3,4-dihydroquinazolin-2-yl)-2-(3,5-difluorophenyl)ethyl)-2-(5-hydroxy-1H-indol-3-yl)acetamide]	> 1			pEC50 ([2]; Table 1a): 6.78
Cn1nc(NS(C)(=O)=O)c2c(Cl)ccc(-c3cc4cn[nH]c4nc3C(Cc3cc(F)cc(F)c3)NC(=O)Cn3nc(C(F)F)c4c3C(F)(F)[C@@H]3C[C@H]43)c21 (single isomer, unassigned) [Example 6.1]			> 10	pEC50 ([2]; Table 1): 5.99
COc1ccc2c(=O)n(-c3ccc(Cl)c4c(NS(C)(=O)=O)nn(C)c34)c([C@H](Cc3cc(F)cc(F)c3)NC(=O)Cn3nc(C(F)F)c4c3C(F)(F)[C@@H]3C[C@H]43)nc2c1 (single isomer, unassigned) [Example 17]			> 10	pEC50 ([2]; Renilla, NL43, Table 1): 7.21
Cn1nc(NS(C)(=O)=O)c2c(Cl)ccc(-c3cc4ccccc4nc3C(Cc3cc(F)cc(F)c3)NC(=O)Cn3nc(C(F)F)c4c3C(F)(F)[C@@H]3C[C@H]43)c21 (single isomer, unassigned) [Example 8.1]			> 10	pEC50 ([2]; Table 1): 9.70
Cn1nc(NS(C)(=O)=O)c2c(Cl)ccc(-n3c(C(Cc4cc(F)cc(F)c4)NC(=O)Cn4nc(C(F)F)c5c4C(F)(F)C4CC54)nc4nc(Cl)ccc4c3=O)c21 (stereo in doubt) [Example 12.1, N—((S)-1-(7-chloro-3-(4-chloro-1-methyl-3-(methylsulfonamido)-1H-indazol-7-yl)-4-oxo-3,4-dihydropyrido[2,3-d]pyrimidin-2-yl)-2-(3,5-difluorophenyl)ethyl)-2-((3bS,4aR)-3-(difluoromethyl)-5,5-difluoro-3b,4,4a,5-tetrahydro-1H-cyclopropa[3,4]cyclopenta[1,2-c]pyrazol-1-yl)acetamide]			> 10	pEC50 ([2]; Renilla, NL43, Table 1): 5.37
COc1c(F)cc2c(=O)n(-c3ccc(Cl)c4c(NS(C)(=O)=O)nn(C)c34)c(C(Cc3cc(F)cc(F)c3)NC(=O)Cn3nc(C(F)F)c4c3C(F)(F)[C@@H]3C[C@H]43)nc2c1F (stereo partly drawn) [Example 113]	> 1	8.07		
O=C(Cn1nc(C(F)F)c2c1C(F)(F)[C@@H]1C[C@H]21)N[C@@H](Cc1cc(F)cc(F)c1)c1nc2ccccc2c(=O)n1-c1ccc(S(=O)(=O)N2CCOCC2)cc1 [Example 165, 2-((3bS,4aR)-3-(difluoromethyl)-5,5-difluoro-3b,4,4a,5-tetrahydro-1H-cyclopropa[3,4]cyclopenta[1,2-c]pyrazol-1-yl)-N—((S)-2-(3,5-difluorophenyl)-1-(3-(4-(morpholinosulfonyl)phenyl)-4-oxo-3,4-dihydroquinazolin-2-yl)ethyl)acetamide]	> 10	9.64		
Cn1nc(NS(C)(=O)=O)c2c(Cl)ccc(-n3c([C@H](Cc4cc(F)cc(F)c4)NC(=O)Cn4nc(C(F)F)c5c4C(F)(F)[C@@H]4C[C@H]54)nc4cc(Cl)cc(Cl)c4c3=O)c21 (mixture of isomers) [Example 178, N—((S)-1-(5,7-dichloro-3-(4-chloro-1-methyl-3-(methylsulfonamido)-1H-indazol-7-yl)-4-oxo-3,4-dihydroquinazolin-2-yl)-2-(3,5-difluorophenyl)ethyl)-2-((3bS,4aR)-3-(difluoromethyl)-5,5-difluoro-3b,4,4a,5-tetrahydro-1H-cyclopropa[3,4]cyclopenta[1,2-c]pyrazol-1-yl)acetamide]	> 1	7.74		
